Where two headings read alike, the source gives them in different places.
Columns and labels:
Assay in all cases: Kinase inhibitory activity profiling of RI-962@10 µM (406 kinases, Eurofins)
Assay type in all cases: biochemical
[1] = target: panel of human kinases (kinase named in endpoint) (Homo sapiens, UniProt P19525); settings: 10 µM; read-out: Activity (%), PKR(h)
Summary of the method: (§1)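 Radiometric filter-binding kinase assays: enzyme preincubated 15 min with compound in 8 mM MOPS pH 7.0, 0.2 mM EDTA, 250 μM peptide substrate, 10 mM magnesium acetate, 10 μM [γ-33P]-ATP. Reaction started with Mg/ATP, run 40 min at room temperature, stopped with phosphoric acid; 33P incorporation read by scintillation counting. Other kinases by similar protocols.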

[2] = target: panel of human kinases (kinase named in endpoint) (Homo sapiens, UniProt O14965); settings: 10 µM; read-out: Activity (%), Aurora-A(h)
Summary of the method: as §1

[3] = target: panel of human kinases (kinase named in endpoint) (Homo sapiens, UniProt Q02763, R849W); settings: 10 µM; read-out: Activity (%), Tie2(R849W)(h)
Summary of the method: as §1

[4] = target: panel of human kinases (kinase named in endpoint) (Homo sapiens, UniProt Q05397); settings: 10 µM; read-out: Activity (%), FAK(h)
Summary of the method: as §1

[5] = target: panel of human kinases (kinase named in endpoint) (Homo sapiens, UniProt P07949); settings: 10 µM; read-out: Activity (%), Ret(h)
Summary of the method: as §1

[6] = target: panel of human kinases (kinase named in endpoint) (Homo sapiens, UniProt Q16288); settings: 10 µM; read-out: Activity (%), TrkC(h)
Chain of panel of human kinases (kinase named in endpoint) (Homo sapiens, UniProt Q16288) (Q16288 32-839): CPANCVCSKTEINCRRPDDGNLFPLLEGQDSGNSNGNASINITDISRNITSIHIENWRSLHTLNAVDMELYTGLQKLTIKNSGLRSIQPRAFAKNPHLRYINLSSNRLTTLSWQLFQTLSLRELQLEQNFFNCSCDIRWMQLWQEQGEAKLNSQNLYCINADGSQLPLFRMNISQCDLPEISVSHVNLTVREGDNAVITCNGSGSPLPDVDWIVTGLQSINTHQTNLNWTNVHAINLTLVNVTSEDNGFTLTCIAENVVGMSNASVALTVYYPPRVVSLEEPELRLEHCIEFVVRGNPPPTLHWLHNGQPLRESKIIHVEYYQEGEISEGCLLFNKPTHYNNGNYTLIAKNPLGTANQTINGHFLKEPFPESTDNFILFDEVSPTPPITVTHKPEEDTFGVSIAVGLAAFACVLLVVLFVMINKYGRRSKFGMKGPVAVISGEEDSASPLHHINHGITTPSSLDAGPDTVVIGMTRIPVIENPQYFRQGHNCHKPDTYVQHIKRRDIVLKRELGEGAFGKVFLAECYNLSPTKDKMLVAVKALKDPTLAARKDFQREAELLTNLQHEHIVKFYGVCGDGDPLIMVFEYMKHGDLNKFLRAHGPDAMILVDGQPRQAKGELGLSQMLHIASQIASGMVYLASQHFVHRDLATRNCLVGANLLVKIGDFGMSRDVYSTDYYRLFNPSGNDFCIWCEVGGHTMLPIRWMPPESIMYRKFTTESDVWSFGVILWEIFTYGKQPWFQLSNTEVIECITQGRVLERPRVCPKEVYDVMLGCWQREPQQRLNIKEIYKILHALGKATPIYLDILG
Summary of the method: as §1

[7] = target: panel of human kinases (kinase named in endpoint) (Homo sapiens, UniProt P29323); settings: 10 µM; read-out: Activity (%), EphB2(h)
Summary of the method: as §1

[8] = target: panel of human kinases (kinase named in endpoint) (Homo sapiens, UniProt P06239); settings: 10 µM
Chain of panel of human kinases (kinase named in endpoint) (Homo sapiens, UniProt P06239) (P06239 whole entry): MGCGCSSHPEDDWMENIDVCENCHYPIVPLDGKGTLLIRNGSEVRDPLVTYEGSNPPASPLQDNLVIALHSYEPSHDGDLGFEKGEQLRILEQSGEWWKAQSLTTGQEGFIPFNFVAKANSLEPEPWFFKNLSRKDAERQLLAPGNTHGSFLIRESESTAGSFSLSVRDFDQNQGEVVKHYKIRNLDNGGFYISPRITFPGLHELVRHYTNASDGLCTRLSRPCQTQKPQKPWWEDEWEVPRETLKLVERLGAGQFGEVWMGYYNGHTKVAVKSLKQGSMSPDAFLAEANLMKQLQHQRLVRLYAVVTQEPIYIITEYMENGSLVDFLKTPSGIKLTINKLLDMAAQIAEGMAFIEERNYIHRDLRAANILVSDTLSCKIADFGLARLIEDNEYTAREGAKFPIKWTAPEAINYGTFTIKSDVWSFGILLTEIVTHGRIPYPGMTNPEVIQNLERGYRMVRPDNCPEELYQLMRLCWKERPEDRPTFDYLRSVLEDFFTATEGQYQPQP
Summary of the method: as §1

[9] = target: panel of human kinases (kinase named in endpoint) (Homo sapiens, UniProt P48736); settings: 10 µM; read-out: Activity (%), PI3 Kinase (p120g)(h)
Summary of the method: as §1

[10] = target: panel of human kinases (kinase named in endpoint) (Homo sapiens, UniProt Q16620); settings: 10 µM; read-out: Activity (%), TrkB(h)
Summary of the method: as §1

[11] = target: panel of human kinases (kinase named in endpoint) (Homo sapiens, UniProt Q13555); settings: 10 µM; read-out: Activity (%), CaMKIIγ(h)
Summary of the method: as §1

[12] = target: panel of human kinases (kinase named in endpoint) (Homo sapiens, UniProt Q15303); settings: 10 µM; read-out: Activity (%), ErbB4(h)
Chain of panel of human kinases (kinase named in endpoint) (Homo sapiens, UniProt Q15303) (Q15303 26-1308): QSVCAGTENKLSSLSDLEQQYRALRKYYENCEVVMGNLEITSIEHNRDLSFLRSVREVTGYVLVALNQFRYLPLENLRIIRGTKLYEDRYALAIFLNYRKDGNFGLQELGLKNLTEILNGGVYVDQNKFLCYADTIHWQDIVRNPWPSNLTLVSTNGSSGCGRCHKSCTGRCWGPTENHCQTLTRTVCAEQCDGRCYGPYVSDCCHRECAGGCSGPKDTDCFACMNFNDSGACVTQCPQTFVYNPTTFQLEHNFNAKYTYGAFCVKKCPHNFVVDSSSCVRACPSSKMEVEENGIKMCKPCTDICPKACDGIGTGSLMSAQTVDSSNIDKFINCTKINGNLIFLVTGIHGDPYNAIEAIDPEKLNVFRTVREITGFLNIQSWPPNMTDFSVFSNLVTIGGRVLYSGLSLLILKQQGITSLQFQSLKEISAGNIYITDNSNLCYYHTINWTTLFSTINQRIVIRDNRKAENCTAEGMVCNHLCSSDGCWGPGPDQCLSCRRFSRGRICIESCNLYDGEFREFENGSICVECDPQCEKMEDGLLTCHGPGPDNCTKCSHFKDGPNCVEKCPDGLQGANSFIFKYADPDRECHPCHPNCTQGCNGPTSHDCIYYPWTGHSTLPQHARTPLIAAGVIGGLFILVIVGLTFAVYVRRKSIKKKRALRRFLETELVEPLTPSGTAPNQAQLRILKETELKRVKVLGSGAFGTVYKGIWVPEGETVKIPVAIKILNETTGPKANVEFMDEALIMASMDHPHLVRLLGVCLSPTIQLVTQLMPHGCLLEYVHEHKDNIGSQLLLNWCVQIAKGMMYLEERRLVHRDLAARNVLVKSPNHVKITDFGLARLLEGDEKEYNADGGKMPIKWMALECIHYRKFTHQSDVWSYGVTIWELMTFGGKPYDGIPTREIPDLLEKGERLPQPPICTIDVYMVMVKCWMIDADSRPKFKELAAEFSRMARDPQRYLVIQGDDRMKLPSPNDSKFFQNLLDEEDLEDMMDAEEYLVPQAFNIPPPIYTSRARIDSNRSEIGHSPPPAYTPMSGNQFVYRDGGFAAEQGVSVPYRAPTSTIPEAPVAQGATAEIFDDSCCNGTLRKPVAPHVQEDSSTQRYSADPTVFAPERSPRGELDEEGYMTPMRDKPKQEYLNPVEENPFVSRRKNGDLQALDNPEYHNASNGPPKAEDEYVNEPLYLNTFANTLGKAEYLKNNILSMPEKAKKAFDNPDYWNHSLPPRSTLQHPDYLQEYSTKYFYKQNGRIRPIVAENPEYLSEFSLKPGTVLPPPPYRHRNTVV
Summary of the method: as §1

[13] = target: panel of human kinases (kinase named in endpoint) (Homo sapiens, UniProt Q07912); settings: 10 µM; read-out: Activity (%), ACK1(h)
Summary of the method: as §1

[14] = target: panel of human kinases (kinase named in endpoint) (Homo sapiens, UniProt P41743); settings: 10 µM; read-out: Activity (%), PKCι(h)
Summary of the method: as §1

[15] = target: panel of human kinases (kinase named in endpoint) (Homo sapiens, UniProt Q9H0K1); settings: 10 µM; read-out: Activity (%), SIK2(h)
Summary of the method: as §1

[16] = target: panel of human kinases (kinase named in endpoint) (Homo sapiens, UniProt P16234, V561D); settings: 10 µM; read-out: Activity (%), PDGFRα(V561D)(h)
Summary of the method: as §1

[17] = target: panel of human kinases (kinase named in endpoint) (Homo sapiens, UniProt Q15119); settings: 10 µM; read-out: Activity (%), PDHK2(h)
Summary of the method: as §1

[18] = target: panel of human kinases (kinase named in endpoint) (Homo sapiens, UniProt Q9UBE8); settings: 10 µM; read-out: Activity (%), NLK(h)
Summary of the method: as §1

[19] = target: panel of human kinases (kinase named in endpoint) (Homo sapiens, UniProt Q15759); settings: 10 µM; read-out: Activity (%), SAPK2b(h)
Chain of panel of human kinases (kinase named in endpoint) (Homo sapiens, UniProt Q15759) (Q15759 whole entry): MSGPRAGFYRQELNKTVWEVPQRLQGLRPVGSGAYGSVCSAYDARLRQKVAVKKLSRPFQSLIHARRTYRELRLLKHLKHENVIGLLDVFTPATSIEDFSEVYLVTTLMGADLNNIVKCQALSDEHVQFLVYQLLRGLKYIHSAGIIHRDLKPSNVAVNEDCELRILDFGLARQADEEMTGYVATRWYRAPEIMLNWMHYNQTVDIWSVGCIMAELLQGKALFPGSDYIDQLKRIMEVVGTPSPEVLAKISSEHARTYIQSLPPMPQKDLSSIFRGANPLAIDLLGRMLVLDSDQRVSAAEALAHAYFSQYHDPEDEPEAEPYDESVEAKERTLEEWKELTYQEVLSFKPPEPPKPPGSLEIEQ
Summary of the method: as §1

[20] = target: panel of human kinases (kinase named in endpoint) (Homo sapiens, UniProt Q05655); settings: 10 µM; read-out: Activity (%), PKCδ(h)
Summary of the method: as §1

[21] = target: panel of human kinases (kinase named in endpoint) (Homo sapiens, UniProt P15056, V600E); settings: 10 µM; read-out: Activity (%), B-Raf(V599E)(h)
Chain of panel of human kinases (kinase named in endpoint) (Homo sapiens, UniProt P15056, V600E) (P15056 whole entry V600E): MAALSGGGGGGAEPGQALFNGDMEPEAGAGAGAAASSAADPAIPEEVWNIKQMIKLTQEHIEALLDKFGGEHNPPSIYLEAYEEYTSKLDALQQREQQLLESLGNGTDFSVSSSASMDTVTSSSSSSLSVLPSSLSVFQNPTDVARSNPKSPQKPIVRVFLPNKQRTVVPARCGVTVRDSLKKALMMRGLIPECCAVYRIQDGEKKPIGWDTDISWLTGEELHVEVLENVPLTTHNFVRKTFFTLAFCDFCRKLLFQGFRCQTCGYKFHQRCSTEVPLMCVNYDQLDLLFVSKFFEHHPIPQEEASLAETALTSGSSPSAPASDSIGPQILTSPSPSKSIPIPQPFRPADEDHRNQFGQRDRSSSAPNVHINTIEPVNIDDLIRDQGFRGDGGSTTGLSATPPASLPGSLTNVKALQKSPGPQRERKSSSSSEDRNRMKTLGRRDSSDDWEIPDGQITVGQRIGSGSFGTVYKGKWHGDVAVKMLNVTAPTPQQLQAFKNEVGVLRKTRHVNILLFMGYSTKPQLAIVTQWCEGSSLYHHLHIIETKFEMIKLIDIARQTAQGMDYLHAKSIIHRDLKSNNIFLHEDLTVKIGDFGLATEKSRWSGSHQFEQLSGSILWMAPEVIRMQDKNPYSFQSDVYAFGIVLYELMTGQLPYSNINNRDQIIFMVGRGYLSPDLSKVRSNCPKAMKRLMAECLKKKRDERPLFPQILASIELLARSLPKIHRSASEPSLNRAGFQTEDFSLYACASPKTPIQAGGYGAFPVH
Summary of the method: as §1

[22] = target: panel of human kinases (kinase named in endpoint) (Homo sapiens, UniProt P17612); settings: 10 µM; read-out: Activity (%), PKA(h)
Summary of the method: as §1

[23] = target: panel of human kinases (kinase named in endpoint) (Homo sapiens, UniProt Q13177); settings: 10 µM; read-out: Activity (%), PAK2(h)
Summary of the method: as §1

[24] = target: panel of human kinases (kinase named in endpoint) (Homo sapiens, UniProt Q14164); settings: 10 µM; read-out: Activity (%), IKKε(h)
Chain of panel of human kinases (kinase named in endpoint) (Homo sapiens, UniProt Q14164) (Q14164 whole entry): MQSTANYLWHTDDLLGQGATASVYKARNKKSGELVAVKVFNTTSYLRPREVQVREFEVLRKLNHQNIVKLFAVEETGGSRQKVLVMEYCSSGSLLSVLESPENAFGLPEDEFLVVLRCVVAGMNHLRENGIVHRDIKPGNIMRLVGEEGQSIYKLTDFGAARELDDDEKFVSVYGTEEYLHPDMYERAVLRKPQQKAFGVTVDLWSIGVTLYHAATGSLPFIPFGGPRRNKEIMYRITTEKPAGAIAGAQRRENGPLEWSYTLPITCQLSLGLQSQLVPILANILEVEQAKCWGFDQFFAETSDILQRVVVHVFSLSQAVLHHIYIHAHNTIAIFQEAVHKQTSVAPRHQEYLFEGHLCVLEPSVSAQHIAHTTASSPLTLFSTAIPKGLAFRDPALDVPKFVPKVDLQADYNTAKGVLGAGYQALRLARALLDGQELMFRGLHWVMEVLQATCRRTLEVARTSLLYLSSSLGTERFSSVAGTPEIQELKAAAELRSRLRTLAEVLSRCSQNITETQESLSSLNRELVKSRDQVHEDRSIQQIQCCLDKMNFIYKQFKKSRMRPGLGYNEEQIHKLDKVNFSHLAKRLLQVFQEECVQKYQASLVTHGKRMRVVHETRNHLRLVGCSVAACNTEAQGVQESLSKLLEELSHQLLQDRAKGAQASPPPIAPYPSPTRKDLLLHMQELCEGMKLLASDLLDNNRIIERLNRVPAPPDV
Summary of the method: as §1

[25] = target: panel of human kinases (kinase named in endpoint) (Homo sapiens, UniProt P08581, M1250T); settings: 10 µM; read-out: Activity (%), Met(M1268T)(h)
Summary of the method: as §1

Chain of panel of human kinases (kinase named in endpoint) (Homo sapiens, UniProt P19525) (P19525 whole entry): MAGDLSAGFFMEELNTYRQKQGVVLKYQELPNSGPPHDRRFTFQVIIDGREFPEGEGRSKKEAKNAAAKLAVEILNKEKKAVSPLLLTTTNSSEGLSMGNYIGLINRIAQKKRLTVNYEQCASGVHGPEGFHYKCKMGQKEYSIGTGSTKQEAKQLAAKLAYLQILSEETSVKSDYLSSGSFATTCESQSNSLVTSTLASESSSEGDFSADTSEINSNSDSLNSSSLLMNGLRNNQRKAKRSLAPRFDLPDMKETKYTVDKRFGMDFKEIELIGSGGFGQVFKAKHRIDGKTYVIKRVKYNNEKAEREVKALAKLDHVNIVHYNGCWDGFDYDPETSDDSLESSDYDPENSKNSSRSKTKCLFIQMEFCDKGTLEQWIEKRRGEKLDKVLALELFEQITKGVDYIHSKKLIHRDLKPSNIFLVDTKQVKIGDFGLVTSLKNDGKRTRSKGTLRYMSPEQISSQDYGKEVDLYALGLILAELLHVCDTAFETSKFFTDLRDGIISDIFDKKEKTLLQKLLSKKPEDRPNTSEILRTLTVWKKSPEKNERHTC

Which activity at 10 µM [1] does the source give for `CC(C)C(=O)Nc1nc2cc(-c3ccc4c(c3)c(C(=O)NC(C)c3ccccc3)cn4C)ccn2n1` (centres unmarked) [RI-962] here?
Its activity at 10 µM is 97%.

And the activity at 10 µM [2]?
The activity at 10 µM was 95%.

What about the activity at 10 µM [3] of the same compound?
Its activity at 10 µM is 109%.

What about the activity at 10 µM [4] of the same compound?
Its activity at 10 µM is 108%.

And the activity at 10 µM [5]?
Its activity at 10 µM is 114%.

What about the activity at 10 µM [6] of the same compound?
The activity at 10 µM was 56%.

What about the activity at 10 µM [7] of the same compound?
Its activity at 10 µM is 73%.

And the activity at 10 µM ([8]; read-out: Activity (%), Lck(h))?
Its activity at 10 µM is 137%.

And the activity at 10 µM ([8]; read-out: Activity (%), Lck(h) activated)?
The activity at 10 µM was 81%.

What about the activity at 10 µM [9] of the same compound?
The activity at 10 µM was 80%.

And the activity at 10 µM [10]?
Its activity at 10 µM is 126%.

What about the activity at 10 µM [11] of the same compound?
Its activity at 10 µM is 93%.

And the activity at 10 µM [12]?
Its activity at 10 µM is 98%.

And the activity at 10 µM [13]?
Its activity at 10 µM is 100%.

And the activity at 10 µM [14]?
The activity at 10 µM was 97%.

And the activity at 10 µM [15]?
Its activity at 10 µM is 101%.

And the activity at 10 µM [16]?
Its activity at 10 µM is 102%.

And the activity at 10 µM [17]?
The activity at 10 µM was 96%.

And the activity at 10 µM [18]?
Its activity at 10 µM is 93%.

And the activity at 10 µM [19]?
The activity at 10 µM was 84%.

And the activity at 10 µM [20]?
The activity at 10 µM was 90%.

What about the activity at 10 µM [21] of the same compound?
The activity at 10 µM was 107%.

What about the activity at 10 µM [22] of the same compound?
Its activity at 10 µM is 97%.

What about the activity at 10 µM [23] of the same compound?
The activity at 10 µM was 84%.

What about the activity at 10 µM [24] of the same compound?
Its activity at 10 µM is 103%.

What about the activity at 10 µM [25] of the same compound?
Its activity at 10 µM is 115%.

Source: PMC9653409, “Generative deep learning enables the discovery of a potent and selective RIPK1 inhibitor” (Nature Communications, 2022)
